Experiments:
barnyard grass [1] = assay: Test Example 3: herbicidal effect by foliage application, Wagner pot (Table 18, symbol H); assay type: in vivo, barnyard grass (Echinochloa crus-galli); details: 320 g/ha
Procedure, shortened: (§1)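 Plants were sown in alluvial soil held under 0.1–0.5 cm standing water and grown 14 days in a greenhouse at 25–30 °C. An emulsifiable formulation, water-diluted to the set dose, was then sprayed onto the foliage, and effects were scored three weeks later using previously defined criteria.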

Chinese sprangletop = assay: Test Example 3: herbicidal effect by foliage application, Wagner pot (Table 18, symbol D); assay type: in vivo, chinese sprangletop (Leptochloa chinensis); details: 320 g/ha
Procedure, shortened: as §1

rice flat sedge = assay: Test Example 3: herbicidal effect by foliage application, Wagner pot (Table 18, symbol E); assay type: in vivo, rice flat sedge (Cyperus iria); details: 320 g/ha
Procedure, shortened: as §1

southern crabgrass [2] = assay: Test Example 4: herbicidal effect by soil treatment (Table 19, symbol F); assay type: in vivo, southern crabgrass (Digitaria ciliaris); details: amount of applied herbicide 320 g/ha
Procedure, shortened: (§2)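 Pre-emergence style soil spray: seeds under ~1.5 cm sterilized diluvial soil received a uniform coat of emulsion diluted to the predetermined herbicide amount. Greenhouse 25–30° C; readout at week three on previously defined criteria.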

green foxtail [3] = assay: Test Example 4: herbicidal effect by soil treatment (Table 19, symbol G); assay type: in vivo, green foxtail (Setaria viridis); details: amount of applied herbicide 320 g/ha
Procedure, shortened: as §2

barnyard grass [4] = assay: Test Example 4: herbicidal effect by soil treatment (Table 19, symbol H); assay type: in vivo, barnyard grass (Echinochloa crus-galli); details: amount of applied herbicide 320 g/ha
Procedure, shortened: as §2

wild oat [5] = assay: Test Example 4: herbicidal effect by soil treatment (Table 19, symbol I); assay type: in vivo, wild oat (Avena fatua); details: amount of applied herbicide 320 g/ha
Procedure, shortened: as §2

blackgrass [6] = assay: Test Example 4: herbicidal effect by soil treatment (Table 19, symbol J); assay type: in vivo, blackgrass (Alopecurus myosuroides); details: amount of applied herbicide 320 g/ha
Text: (§3) [Test Example 4] Herbicidal Effect Test by Soil Treatment
(§4) Sterilized diluvial soil was placed in a plastic box having a length of 21 cm, a width of 13 cm, and a depth of 7 cm. The seeds of each of southern crabgrass, green foxtail, barnyard grass, wild oat, blackgrass, Italian ryegrass, windgrass, velvetleaf, redroot pigweed, lambsquarters, chickweed, false cleavers, persian speedwell, corn, soybean, rice, wheat, beet, and rapeseed were sowed in a spot-like manner and covered with the soil having a thickness of about 1.5 cm. Subsequently, the emulsion agent of the compound of the present invention prepared according to Formulation Example 2 was diluted with water so as to achieve a predetermined herbicide amount, and the diluted emulsion agent was uniformly applied to the surface of the soil with a small-sized spray. The plastic box was placed in a greenhouse at 25° C. to 30° C. for growth of the plants. Three weeks after the herbicide application, the effect of the herbicide on each plant was evaluated according to the criteria of Test Example 1.

Italian ryegrass [7] = assay: Test Example 4: herbicidal effect by soil treatment (Table 19, symbol K); assay type: in vivo, Italian ryegrass (Lolium multiflorum); details: amount of applied herbicide 320 g/ha
Procedure, shortened: as §2

windgrass [8] = assay: Test Example 4: herbicidal effect by soil treatment (Table 19, symbol L); assay type: in vivo, windgrass (Apera spica-venti); details: amount of applied herbicide 320 g/ha
Text: as §3, §4

velvetleaf [9] = assay: Test Example 4: herbicidal effect by soil treatment (Table 19, symbol M); assay type: in vivo, velvetleaf (Abutilon theophrasti); details: amount of applied herbicide 320 g/ha
Procedure, shortened: as §2

redroot pigweed [10] = assay: Test Example 4: herbicidal effect by soil treatment (Table 19, symbol N); assay type: in vivo, redroot pigweed (Amaranthus retroflexus); details: amount of applied herbicide 320 g/ha
Procedure, shortened: as §2

lambsquarters [11] = assay: Test Example 4: herbicidal effect by soil treatment (Table 19, symbol O); assay type: in vivo, lambsquarters (Chenopodium album); details: amount of applied herbicide 320 g/ha
Procedure, shortened: as §2

chickweed [12] = assay: Test Example 4: herbicidal effect by soil treatment (Table 19, symbol P); assay type: in vivo, common chickweed (Stellaria media); details: amount of applied herbicide 320 g/ha
Procedure, shortened: as §2

southern crabgrass [13] = assay: Test Example 5: herbicidal effect by foliage application, plastic box (Table 20, symbol F); assay type: in vivo, southern crabgrass (Digitaria ciliaris); details: 320 g/ha, foliage application after 14-day growth, evaluated three weeks after application
Procedure, shortened: (§5)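 Plants were sown into sterilized diluvial soil under about 1.5 cm cover and kept in a greenhouse at 25° C. to 30° C. Fourteen days on, foliage received an even spray of the diluted emulsion. Herbicidal or crop effect was judged three weeks afterwards.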

green foxtail [14] = assay: Test Example 5: herbicidal effect by foliage application, plastic box (Table 20, symbol G); assay type: in vivo, green foxtail (Setaria viridis); details: 320 g/ha, foliage application after 14-day growth, evaluated three weeks after application
Procedure, shortened: as §5

barnyard grass [15] = assay: Test Example 5: herbicidal effect by foliage application, plastic box (Table 20, symbol H); assay type: in vivo, barnyard grass (Echinochloa crus-galli); details: 320 g/ha, foliage application after 14-day growth, evaluated three weeks after application
Procedure, shortened: as §5

wild oat [16] = assay: Test Example 5: herbicidal effect by foliage application, plastic box (Table 20, symbol I); assay type: in vivo, wild oat (Avena fatua); details: 320 g/ha, foliage application after 14-day growth, evaluated three weeks after application
Procedure, shortened: as §5

blackgrass [17] = assay: Test Example 5: herbicidal effect by foliage application, plastic box (Table 20, symbol J); assay type: in vivo, blackgrass (Alopecurus myosuroides); details: 320 g/ha, foliage application after 14-day growth, evaluated three weeks after application
Procedure, shortened: as §5

Italian ryegrass [18] = assay: Test Example 5: herbicidal effect by foliage application, plastic box (Table 20, symbol K); assay type: in vivo, Italian ryegrass (Lolium multiflorum); details: 320 g/ha, foliage application after 14-day growth, evaluated three weeks after application
Procedure, shortened: as §5

windgrass [19] = assay: Test Example 5: herbicidal effect by foliage application, plastic box (Table 20, symbol L); assay type: in vivo, windgrass (Apera spica-venti); details: 320 g/ha, foliage application after 14-day growth, evaluated three weeks after application
Procedure, shortened: as §5

velvetleaf [20] = assay: Test Example 5: herbicidal effect by foliage application, plastic box (Table 20, symbol M); assay type: in vivo, velvetleaf (Abutilon theophrasti); details: 320 g/ha, foliage application after 14-day growth, evaluated three weeks after application
Procedure, shortened: as §5

redroot pigweed [21] = assay: Test Example 5: herbicidal effect by foliage application, plastic box (Table 20, symbol N); assay type: in vivo, redroot pigweed (Amaranthus retroflexus); details: 320 g/ha, foliage application after 14-day growth, evaluated three weeks after application
Procedure, shortened: as §5

lambsquarters [22] = assay: Test Example 5: herbicidal effect by foliage application, plastic box (Table 20, symbol O); assay type: in vivo, lambsquarters (Chenopodium album); details: 320 g/ha, foliage application after 14-day growth, evaluated three weeks after application
Procedure, shortened: as §5

chickweed [23] = assay: Test Example 5: herbicidal effect by foliage application, plastic box (Table 20, symbol P); assay type: in vivo, common chickweed (Stellaria media); details: 320 g/ha, foliage application after 14-day growth, evaluated three weeks after application
Procedure, shortened: as §5

persian speedwell = assay: Test Example 5: herbicidal effect by foliage application, plastic box (Table 20, symbol R); assay type: in vivo, Persian speedwell (Veronica persica); details: 320 g/ha, foliage application after 14-day growth, evaluated three weeks after application
Procedure, shortened: as §5

Row | Compound | herbicidal effect on barnyard grass (H) (barnyard grass [1]) | herbicidal effect on Chinese sprangletop (D) (Chinese sprangletop) | herbicidal effect on rice flat sedge (E) (rice flat sedge) | Herbicidal effect by soil treatment, F: southern crabgrass (southern crabgrass [2]) | Herbicidal effect by soil treatment, G: green foxtail (green foxtail [3]) | Herbicidal effect by soil treatment, H: barnyard grass (barnyard grass [4]) | Herbicidal effect by soil treatment, I: wild oat (wild oat [5]) | Herbicidal effect by soil treatment, J: blackgrass (blackgrass [6]) | Herbicidal effect by soil treatment, K: Italian ryegrass (Italian ryegrass [7]) | Herbicidal effect by soil treatment, L: windgrass (windgrass [8]) | Herbicidal effect by soil treatment, M: velvetleaf (velvetleaf [9]) | Herbicidal effect by soil treatment, N: redroot pigweed (redroot pigweed [10]) | Herbicidal effect by soil treatment, O: lambsquarters (lambsquarters [11]) | Herbicidal effect by soil treatment, P: chickweed (chickweed [12]) | herbicidal effect on F: southern crabgrass (evaluation grade 0-5) (southern crabgrass [13]) | herbicidal effect on G: green foxtail (evaluation grade 0-5) (green foxtail [14]) | herbicidal effect on H: barnyard grass (evaluation grade 0-5) (barnyard grass [15]) | herbicidal effect on I: wild oat (evaluation grade 0-5) (wild oat [16]) | herbicidal effect on J: blackgrass (evaluation grade 0-5) (blackgrass [17]) | herbicidal effect on K: Italian ryegrass (evaluation grade 0-5) (Italian ryegrass [18]) | further results
1 | CCOc1ccccc1-c1sc2c(Cl)cccc2c1-c1c(O)c(C)nn(C)c1=O [4-025] | 5 (Herbicidal rate of 90% or more (almost completely withered)) | 3 (Herbicidal rate of 40% or more and less than 70%) | 5 (Herbicidal rate of 90% or more (almost completely withered)) | 2 (Herbicidal rate of 20% or more and less than 40%) | 4 (Herbicidal rate of 70% or more and less than 90%) | 3 (Herbicidal rate of 40% or more and less than 70%) | 0 (Herbicidal rate of 5% or less (almost no effect)) | 1 (Herbicidal rate of 5% or more and less than 20%) | 0 (Herbicidal rate of 5% or less (almost no effect)) | 0 (Herbicidal rate of 5% or less (almost no effect)) | 2 (Herbicidal rate of 20% or more and less than 40%) | 3 (Herbicidal rate of 40% or more and less than 70%) | 1 (Herbicidal rate of 5% or more and less than 20%) | 0 (Herbicidal rate of 5% or less (almost no effect)) | 3 (Herbicidal rate of 40% or more and less than 70%) | 5 (Herbicidal rate of 90% or more (almost completely withered)) | 5 (Herbicidal rate of 90% or more (almost completely withered)) | 0 (Herbicidal rate of 5% or less (almost no effect)) | 4 (Herbicidal rate of 70% or more and less than 90%) | 3 (Herbicidal rate of 40% or more and less than 70%) | herbicidal effect on L: windgrass (evaluation grade 0-5) (windgrass [19]): 5 (Herbicidal rate of 90% or more (almost completely withered)); herbicidal effect on M: velvetleaf (evaluation grade 0-5) (velvetleaf [20]): 4 (Herbicidal rate of 70% or more and less than 90%); herbicidal effect on N: redroot pigweed (evaluation grade 0-5) (redroot pigweed [21]): 4 (Herbicidal rate of 70% or more and less than 90%); herbicidal effect on O: lambsquarters (evaluation grade 0-5) (lambsquarters [22]): 3 (Herbicidal rate of 40% or more and less than 70%); herbicidal effect on P: chickweed (evaluation grade 0-5) (chickweed [23]): 4 (Herbicidal rate of 70% or more and less than 90%); herbicidal effect on R: persian speedwell (evaluation grade 0-5) (persian speedwell): 5 (Herbicidal rate of 90% or more (almost completely withered))
2 | Cc1nn(C)c(=O)c(-c2c(-c3ccccc3F)sc3c(Cl)cccc23)c1O [4-058] | 4 (Herbicidal rate of 70% or more and less than 90%) | 3 (Herbicidal rate of 40% or more and less than 70%) | 3 (Herbicidal rate of 40% or more and less than 70%) | 0 (Herbicidal rate of 5% or less (almost no effect)) | 0 (Herbicidal rate of 5% or less (almost no effect)) | 0 (Herbicidal rate of 5% or less (almost no effect)) | 0 (Herbicidal rate of 5% or less (almost no effect)) | 0 (Herbicidal rate of 5% or less (almost no effect)) | 2 (Herbicidal rate of 20% or more and less than 40%) | 0 (Herbicidal rate of 5% or less (almost no effect)) | 0 (Herbicidal rate of 5% or less (almost no effect)) | 0 (Herbicidal rate of 5% or less (almost no effect)) | 0 (Herbicidal rate of 5% or less (almost no effect)) | 5 (Herbicidal rate of 90% or more (almost completely withered)) | 2 (Herbicidal rate of 20% or more and less than 40%) | 0 (Herbicidal rate of 5% or less (almost no effect)) | 0 (Herbicidal rate of 5% or less (almost no effect)) | 0 (Herbicidal rate of 5% or less (almost no effect)) | 0 (Herbicidal rate of 5% or less (almost no effect)) | 3 (Herbicidal rate of 40% or more and less than 70%) | herbicidal effect on L: windgrass (evaluation grade 0-5) (windgrass [19]): 4 (Herbicidal rate of 70% or more and less than 90%); herbicidal effect on M: velvetleaf (evaluation grade 0-5) (velvetleaf [20]): 1 (Herbicidal rate of 5% or more and less than 20%); herbicidal effect on N: redroot pigweed (evaluation grade 0-5) (redroot pigweed [21]): 3 (Herbicidal rate of 40% or more and less than 70%); herbicidal effect on O: lambsquarters (evaluation grade 0-5) (lambsquarters [22]): 2 (Herbicidal rate of 20% or more and less than 40%); herbicidal effect on P: chickweed (evaluation grade 0-5) (chickweed [23]): 5 (Herbicidal rate of 90% or more (almost completely withered)); herbicidal effect on R: persian speedwell (evaluation grade 0-5) (persian speedwell): 5 (Herbicidal rate of 90% or more (almost completely withered))

— patent publication US20230085307A1, “PYRIDAZINONE COMPOUND AND HERBICIDE” (NISSAN CHEMICAL CORPORATION, priority 2019, published 2023)
